Laboratory results: patent US20240238417A1, “METHODS OF PRODUCING TUMOR VACCINES AND USES THEREOF” (priority 2021, published 2024)

What was measured:
[1] = system: CT26 challenge tumor; experiment: Challenge assay in CT26 tumor-bearing mice; assay type: in vivo
Description: Challenge tumor inoculation: Up to 21 days after gas treatment was applied to the primary tumor, the appropriate cancer cell suspensions were prepared as described herein and inoculation of cells was repeated on the contralateral flank of the mice. Administration was performed as soon as possible following cell suspension preparation and after manual shaking prior to withdrawal of the cell suspension.
The percentage of challenge tumor take was monitored 2-3 times a week by taking a look at the inoculated site and touching this area to look for small tumors that are not yet visible. Naïve mice inoculated with tumor cells for the first time served as an internal control.
In another challenge assay, the tumors of CT26 tumor-bearing mice were treated with 25,000-200,000 ppm gNO delivered into the tumors using 23G hypodermic needles, as depicted in FIG. 17A.
CT26 tumor-bearing mice treated with 25,000 ppm for 30 minutes, were re-inoculated with CT26 tumor cells 12 days after treatment (n=1) and 14 days after treatment (n=1). The percentage of visible challenge tumor take was assessed 2-3 times a week for more than 50 days.
An additional group of CT26 tumor-bearing mice were treated with 50,000 ppm for 10 minutes, and were re-inoculated with CT26 tumor cells 7 days (n=1) or 9 days (n=1) after treatment. The percentage of challenge tumor take was assessed 2-3 times a week for 12 days.
An additional group of CT26 tumor-bearing mice were treated with 200,000 ppm for 2-35 seconds, were re-inoculated with CT26 tumor cells 14 days (n=2) post treatment. The percentage of visible challenge tumor take was assessed 2-3 times a week for more than 50 days.
Naïve mice, inoculated with CT26 for the first time, served as the control group.
The effect of high-pressure gas treatment on stimulation of anti-tumor immune response was tested in a challenge assay as depicted in FIG. 37A.
Balb/c mice were inoculated subcutaneously (s.c) with the mouse colon cancer cell line, CT26. […]

[2] = system: 4T1 cells; experiment: XTT viability of 4T1 cells after direct gas exposure in 96-well plate; assay type: cell-based, mouse
Excerpt: Tumor celllines: The mouse colon carcinoma cell line, CT26WT, was cloned from CT26, an N-nitroso-N-methylurethane-induced, undifferentiated colon carcinoma cell line. The mouse mammary tumor cell line, 4T1, is a 6-thioguanine resistant cell line. When injected into BALB/c mice, 4T1 spontaneously produces highly metastatic tumors that can metastasize to the lung, liver, lymph nodes and brain while the primary tumor is growing in situ. […] Panc 02.03 is a pancreatic adenocarcinoma epithelial cell line derived in 1995 from a primary tumor removed from the head-of-the-pancreas of […] with pancreatic adenocarcinoma. CT26, 4T1 and Panc 02.03 cell lines were grown in RPMI based media (ATCC 30-2001) supplemented with fetal bovine serum and pen-strep (both from Biological Industries). The LLC1/LU2 cell line was grown in DMEM based media (ATCC 30-2002) supplemented with fetal bovine serum and pen-strep (Biological industries). The B16.F10 cell lines was grown in DMEM based media (ATCC 30-2002) supplemented with fetal bovine serum and pen-strep (Biologicalindustries).
In vitro systems: One system involves a direct exposure of cancer cells to gNO in 96-well plate. Gaseous NO at 150 ppm-50,000 ppm was delivered at 0.3 LPM for 10 seconds—3 minutes. In another system, cancer cells were exposed to gNO in a box made of acrylic glass. Gaseous NO at 10,000-50,000 ppm was delivered at 0.9 LPM for 10 seconds—15 minutes.
The exposure of the cancer cells to gNO was done after removing the cell culture medium.
Immediately after gas exposure, cell culture medium was added, and the cells were incubated at a 37° C. and 5% CO2 incubator over-night. To test cell viability, XTT assay and Annexin V-Propidium Iodide assays were performed, according to known protocols.
The effect of continuous gaseous nitric oxide (gNO) at 150 ppm, 4,000 ppm, 10,000 ppm, or 50,000 ppm, compared to air (control), on the survival of 4T1 cancer cell line was tested. 4T1 cells were prepared in RPMI medium and suspended in six 96-well plates. […]

[3] = pH of cell suspension after ex-vivo gNO treatment of tumor cells; assay type: physicochemical; conditions: ex-vivo treatment of tumor cells with gNO

[N]=O [gNO, nitric oxide]
secondary CT26 tumor cell inoculation at end of follow-up ([1]; 25,000 ppm 30 minutes, 50,000 ppm 10 minutes or 200,000 ppm 2-35 seconds, naive mice 100% tumor take): all NO-treated mice rejected a secondary CT26 tumor cell inoculation
tumor-free mice, no primary and challenge tumors ([1]; 25,000 ppm gNO, 0.25 LPM, two 15-minute cycles, outlet pressure 3.5-5.17 bars): 50%
development of a secondary (challenge) CT26 tumor ([1]; 25,000 ppm gNO, 0.25 LPM, two 15-minute cycles, outlet pressure 3.5-5.17 bars, re-inoculated days 12-14): have not developed a secondary tumor
4T1 cells remain viable ([2]; 4,000-10,000 ppm gNO for 1 minute): About 60%
viability of 4T1 cells ([2]; 10,000 or 50,000 ppm gNO for 180 seconds): 1-3%
4T1 cells remained viable ([2]; 10,000 ppm or 50,000 ppm gNO for 10 seconds): less than 80%
pH of cell suspension comprising gNO-treated tumor cells [3]: acidic pH
